Data from PMC10302202, “The Finding of New In Vivo Metabolite Triptorelin (5-10) in Human Urine Using Liquid Chromatography Coupled with Ion Trap/Time-of-Flight Mass Spectrometry with Dimethyl Sulfoxide Additives in the Mobile Phase” (Molecules, 2023).
Non-standard residues stand in square brackets, D forms with d. Residues, ends and D or L forms follow the SMILES beside them.

Columns and labels:
[1] = Urine levels of triptorelin and triptorelin (5-10) in patients after triptorelin administration (LC/MS-IT-TOF); type: in vivo, human; settings: for detection level in urine, 3 h / detection level in urine, 6 h: first time, prostate cancer patient
Description: The column compartment temperature was set at 30 °C. The autosampler unit temperature was set at 10 °C. […] The spray voltage was set at 4 kV.
A further urine sample was collected one month later.
The injection volume was 30 μL. The total runtime is 9 min.

[2] = Urine levels of leuprorelin and leuprorelin (5-9) in patients after leuprorelin administration (LC/MS-IT-TOF); settings: SPE; for detection level in urine, 3 h / detection level in urine, 6 h: first time, prostate cancer patient
Description: (§1) Sample analysis was carried out by using the LCMS-IT-TOF Prominence system (Shimadzu, Japan) and LC model UPLC 8040 [18]. The analytical column was a Poroshell 120 EC-C18 (2.1 mm × 150 mm, 2.7 μm particle) coupled with a guard column (SecurityGuard^TM C18, 3.0 mm). The column compartment temperature was set at 30 °C. The autosampler unit temperature was set at 10 °C. Dry gas was set at 47 kPa, and nebulizer gas was set at 1.5 L/min. The curved desolvation line (CDL) and heating block temperature were set at 250 °C. The spray voltage was set at 4 kV.
(§2) Urine samples were collected at the Division of Urology, Department of Surgery, Faculty of Medicine, Ramathibodi Hospital, Bangkok, Thailand. […] Urine samples were collected at 0.0, 3.0, and 6.0 h from 5 patients who had received either 11.25 mg of Enantone® L.P (leuprorelin acetate) or Diphereline® P.R. (triptorelin pamoate) intramuscularly for the first time.
(§3) In this study, 200 mL of sodium phosphate buffer (pH 6.8; 0.8 M) was added to a 3.0 mL aliquot of urine. The batch of samples was centrifuged at 5000 rpm for 5 min at 5 °C. The supernatant from each tube was transferred to a new set of protein LoBind® tubes, Eppendorf (Melbourne, Australia) and 20 μL of ISTD (see Section 4.3) was added to each sample [17]. SPE cartridges (see Section 4.1) were activated with 2 mL of methanol followed by 2 mL of ultra-pure water. The supernatants were slowly loaded onto the SPE cartridges (flow rate is approximately 1.0 mL/min) and washed with 1 mL of water, followed by 1 mL of freshly prepared 10% v/v aqueous methanol; then, all washing solutions were removed and dried using a vacuum pump. Elution was performed using freshly prepared 10% v/v formic acid in methanol. Eluates were evaporated at 45 °C to approximately 10 μL in a vacuum centrifuge. The residues were reconstituted in 50 μL of freshly prepared 0.1% formic acid in water.
(§4) The mobile phases were 0.1% formic acid in water with or without 1% DMSO (mobile phase A) and acetonitrile (mobile phase B) at a flow rate of 0.3 mL/min. The mobile phase gradient program was as follows: 0.0–2.0 min, 20 to 30% B; 2.0–4.0 min, 30 to 45% B; 4.0–5.0 min, 45 to 100% B; 5.0–6.0 min, hold at 100% B; 6.0–7.0 min, 100% to 20% B; and 7.0–9.0 min hold at 20% B (column equilibration). The injection volume was 30 μL. The total runtime is 9 min.
(§5) Mass spectrometric analysis was employed both in the full-scan mode and MS-MS mode. Data analysis was performed using 2 product ion transitions for each compound. LC/MS-IT-TOF mass spectrometric variables, including the m/z of product ions, ion accumulation time, and collision energy (CE), were optimized for maximum abundance for each ion transition. Ionization was performed using ESI in the positive ion mode at 3500 V. The ion accumulation time was 10 milliseconds, and the isolation width was 1.5 Dalton.
(§6) The mean and standard deviation of the concentration of leuprorelin, leuprorelin (5-9), triptorelin, and triptorelin (5-10) from 5 patients were used for statistical analysis.

clinical = settings: human, in vivo, im, 11.25 mg, detection level in urine, mean
Description: as §1, §2, §3, §4, §5, §6

[3] = in vivo; cited from earlier work

CC(C)C[C@H](NC(=O)[C@@H](Cc1c[nH]c2ccccc12)NC(=O)[C@@H](N)Cc1ccc(O)cc1)C(=O)N[C@@H](CCCNC(=N)N)C(=O)N1CCC[C@H]1C(=O)NCC(N)=O [Triptorelin (5-10), triptorelin (5-10)] (H-Y[dW]LRPG-NH2)
detection level in urine, 1 month, mean ([1]; mean line, n = 5 for triptorelin, n = 3 for triptorelin (5-10), urine 1 month after 11.25 mg Diphereline P.R. (triptorelin pamoate) intramuscularly, ND = not detectable): 0.7 ng/mL | detection level in urine, 3 h, mean ([1]; mean of n = 5 patients, urine 3 h after 11.25 mg Diphereline P.R. (triptorelin pamoate) intramuscularly, SPE, LC/MS-IT-TOF): 105.5 ng/mL | detection level in urine, 1 month ([1]; patient 1, urine 1 month after 11.25 mg Diphereline P.R. (triptorelin pamoate) intramuscularly, ND = not detectable, SPE, LC/MS-IT-TOF): 1.2 ng/mL | detection level in urine, 3 h ([1]; patient 1, urine 3 h after 11.25 mg Diphereline P.R. (triptorelin pamoate) intramuscularly, SPE, LC/MS-IT-TOF): 84.3 ng/mL | detection level in urine, 6 h ([1]; patient 1, urine 6 h after 11.25 mg Diphereline P.R. (triptorelin pamoate) intramuscularly, SPE, LC/MS-IT-TOF): 24.7 ng/mL | detection level in urine, 1 month ([1]; patient 2, urine 1 month after 11.25 mg Diphereline P.R. (triptorelin pamoate) intramuscularly, ND = not detectable, SPE, LC/MS-IT-TOF): 0.3 ng/mL | detection level in urine, 3 h ([1]; patient 2, urine 3 h after 11.25 mg Diphereline P.R. (triptorelin pamoate) intramuscularly, SPE, LC/MS-IT-TOF): 25.3 ng/mL | detection level in urine, 6 h ([1]; patient 2, urine 6 h after 11.25 mg Diphereline P.R. (triptorelin pamoate) intramuscularly, SPE, LC/MS-IT-TOF): 43.5 ng/mL | detection level in urine, 3 h ([1]; patient 3, urine 3 h after 11.25 mg Diphereline P.R. (triptorelin pamoate) intramuscularly, SPE, LC/MS-IT-TOF): 12.8 ng/mL | detection level in urine, 6 h ([1]; patient 3, urine 6 h after 11.25 mg Diphereline P.R. (triptorelin pamoate) intramuscularly, SPE, LC/MS-IT-TOF): 3.2 ng/mL | detection level in urine, 3 h ([1]; patient 4, urine 3 h after 11.25 mg Diphereline P.R. (triptorelin pamoate) intramuscularly, SPE, LC/MS-IT-TOF): 225.7 ng/mL | detection level in urine, 6 h ([1]; patient 4, urine 6 h after 11.25 mg Diphereline P.R. (triptorelin pamoate) intramuscularly, SPE, LC/MS-IT-TOF): 250.6 ng/mL | detection level in urine, 1 month ([1]; patient 5, urine 1 month after 11.25 mg Diphereline P.R. (triptorelin pamoate) intramuscularly, ND = not detectable, SPE, LC/MS-IT-TOF): 0.6 ng/mL | detection level in urine, 3 h ([1]; patient 5, urine 3 h after 11.25 mg Diphereline P.R. (triptorelin pamoate) intramuscularly, SPE, LC/MS-IT-TOF): 179.1 ng/mL | detection level in urine, 6 h ([1]; patient 5, urine 6 h after 11.25 mg Diphereline P.R. (triptorelin pamoate) intramuscularly, SPE, LC/MS-IT-TOF): 202.0 ng/mL

CC(C)C[C@H](NC(=O)[C@@H](Cc1c[nH]c2ccccc12)NC(=O)[C@H](Cc1ccc(O)cc1)NC(=O)[C@H](CO)NC(=O)[C@H](Cc1c[nH]c2ccccc12)NC(=O)[C@H](Cc1c[nH]cn1)NC(=O)[C@@H]1CCC(=O)N1)C(=O)N[C@@H](CCCNC(=N)N)C(=O)N1CCC[C@H]1C(=O)NCC(N)=O [Triptorelin, triptorelin]
level at 3 h ([1]; human, urine, im, 11.25 mg, mean of n = 5 patients, urine 3 h after 11.25 mg Diphereline P.R. (triptorelin pamoate) intramuscularly, SPE, LC/MS-IT-TOF, read-out: detection level in urine, 3 h, mean): 64.1 ng/mL | level at 6 h ([1]; human, urine, im, 11.25 mg, mean of n = 5 patients, urine 6 h after 11.25 mg Diphereline P.R. (triptorelin pamoate) intramuscularly, SPE, LC/MS-IT-TOF, read-out: detection level in urine, 6 h, mean): 62.6 ng/mL

CCNC(=O)[C@@H]1CCCN1C(=O)[C@H](CCCNC(=N)N)NC(=O)[C@H](CC(C)C)NC(=O)[C@@H](CC(C)C)NC(=O)[C@@H](N)Cc1ccc(O)cc1 [Leuprorelin (5-9), leuprorelin (5-9)] (H-Y[dL]LRP-NHEt)
detection level in urine, 3 h, mean ([2]; mean of n = 5 patients, urine 3 h after 11.25 mg Enantone L.P (leuprorelin acetate) intramuscularly): 74.8 ng/mL | detection level in urine, 6 h, mean ([2]; mean of n = 5 patients, urine 6 h after 11.25 mg Enantone L.P (leuprorelin acetate) intramuscularly): 78.9 ng/mL | detection level in urine, 3 h ([2]; patient 1, urine 3 h after 11.25 mg Enantone L.P (leuprorelin acetate) intramuscularly): 68.0 ng/mL | detection level in urine, 6 h ([2]; patient 1, urine 6 h after 11.25 mg Enantone L.P (leuprorelin acetate) intramuscularly): 73.1 ng/mL | detection level in urine, 3 h ([2]; patient 2, urine 3 h after 11.25 mg Enantone L.P (leuprorelin acetate) intramuscularly): 106.9 ng/mL | detection level in urine, 6 h ([2]; patient 2, urine 6 h after 11.25 mg Enantone L.P (leuprorelin acetate) intramuscularly): 18.7 ng/mL | detection level in urine, 3 h ([2]; patient 3, urine 3 h after 11.25 mg Enantone L.P (leuprorelin acetate) intramuscularly): 162.9 ng/mL | detection level in urine, 6 h ([2]; patient 3, urine 6 h after 11.25 mg Enantone L.P (leuprorelin acetate) intramuscularly): 100.4 ng/mL | detection level in urine, 3 h ([2]; patient 4, urine 3 h after 11.25 mg Enantone L.P (leuprorelin acetate) intramuscularly): 16.7 ng/mL | detection level in urine, 6 h ([2]; patient 4, urine 6 h after 11.25 mg Enantone L.P (leuprorelin acetate) intramuscularly): 23.8 ng/mL | detection level in urine, 3 h ([2]; patient 5, urine 3 h after 11.25 mg Enantone L.P (leuprorelin acetate) intramuscularly): 19.3 ng/mL | detection level in urine, 6 h ([2]; patient 5, urine 6 h after 11.25 mg Enantone L.P (leuprorelin acetate) intramuscularly): 178.7 ng/mL

CCNC(=O)[C@@H]1CCCN1C(=O)[C@H](CCCNC(=N)N)NC(=O)[C@H](CC(C)C)NC(=O)[C@@H](CC(C)C)NC(=O)[C@H](Cc1ccc(O)cc1)NC(=O)[C@H](CO)NC(=O)[C@H](Cc1c[nH]c2ccccc12)NC(=O)[C@H](Cc1c[nH]cn1)NC(=O)[C@@H]1CCC(=O)N1 [Leuprorelin, leuprorelin]
level at 3 h (clinical; 3 h): 65 ng/mL | level at 6 h (clinical; 6 h): 106 ng/mL

GnRH: endogenous 10-amino-acid peptide synthesized and produced in the hypothalamus
half-life [3]: 2 min
